18 molecules from US12264134B2 (Merck Sharp & Dohme LLC, priority 2018, dated 2025) can be followed below.

The target in this test is IDO1 (Homo sapiens, UniProt P14902). Kind of test: IDO1 Cellular Assay in HeLa Cells Stimulated with IFNγ. Format: cell-based. To be noted: read-out: HeLa Cell Potency, IC50. On the procedure:
IDO1 Cellular Assay in HeLa Cells Stimulated with IFNγ
HeLa cells were cultured in complete HeLa culture medium (90% EMEM, 10% heat-inactivated fetal bovine serum) and expanded to about 1×10^9 cells. The cells were then collected and frozen down at 1×10^7 cells/vial in 1 mL frozen medium (90% complete HeLa culture medium, 10% DMSO).
Compounds to be tested were serially diluted in ten 3-fold steps in DMSO starting from 10 mM DMSO stocks in Echo low volume plate(s). Compound dilutions or DMSO alone were then dispensed from the dilution plate(s) into Greiner black 384-well assay plate(s) (catalog #781086, 50 nL/well) using an Echo 550 acoustic liquid handler (Labcyte).
Frozen HeLa cells were thawed and transferred into HeLa assay medium (99% complete HeLa culture medium, 1% Pen/Strep) with 20 mL medium/vial of cells. The cells were spun down at 250 g in a table top centrifuge for 5 min and suspended in same volume of HeLa assay medium. The cells were then counted and adjusted to a density of 2×10^5 cells/mL in HeLa assay medium. Sterile L-tryptophan were added to the cells with final concentration of 300 uM L-tryptophan. A small aliquot (2 mL/plate) of HeLa cells were set aside and were not treated with IFNγ, to serve as the Max-E control.
HeLa cells with and without IFNγ were dispensed to the respective wells of 384-well assay plates containing the compounds. The plates were incubated for about 48 hours at a 37° C., 5% CO2 incubator. Afterwards, 12 μL of 0.5 M methyl isonipecotate in dimethyl sulfoxide were added into each well and the plates were sealed and incubated at 37° C. without CO2 overnight. The plates were centrifuged for 1 min at 200×g. The resulting fluorescence was measured in a Spectramax plate reader (Molecular Devices) with a 400 nm excitation filter and a 510 nm emission filter.
The fluorescence intensity of each well was corrected for the background observed in wells with non-IFNγ-treated cells and was expressed as a fraction of the intensity observed in wells of IFNγ-treated cells and DMSO only. Potencies were calculated by linear least squares fit to the four parameter logistic IC50 equation.

Usually IC50 stands for the concentration that inhibits the measured activity by half.

SMILES strings stand for the structures.

Sequence of IDO1 (P14902 whole entry): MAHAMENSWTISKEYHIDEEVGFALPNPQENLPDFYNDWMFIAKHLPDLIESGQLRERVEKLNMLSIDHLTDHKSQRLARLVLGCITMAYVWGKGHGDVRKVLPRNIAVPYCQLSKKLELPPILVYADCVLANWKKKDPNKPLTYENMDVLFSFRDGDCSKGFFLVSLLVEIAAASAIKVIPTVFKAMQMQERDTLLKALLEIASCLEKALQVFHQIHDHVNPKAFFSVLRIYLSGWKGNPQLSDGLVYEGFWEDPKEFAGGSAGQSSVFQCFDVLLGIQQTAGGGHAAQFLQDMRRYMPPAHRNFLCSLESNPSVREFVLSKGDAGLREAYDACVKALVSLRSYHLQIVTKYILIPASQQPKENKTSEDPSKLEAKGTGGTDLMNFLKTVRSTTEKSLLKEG

On to `Cc1cccc(N2CCN(C(=O)Cn3nc(C(=O)N4CCC5C(C4)NC(=O)N5C)c4c3C[C@H]3C[C@@H]43)CC2)c1C` (stereo partly drawn) [Example 273, 5-[(3bR,4aR)-1-{2-[4-(2,3-dimethylphenyl)piperazin-1-yl]-2-oxoethyl}-3b,4,4a,5-tetrahydro-1H-cyclopropa[3,4]cyclopenta[1,2-c]pyrazole-3-carbonyl]-1-methyloctahydro-2H-imidazo[4,5-c]pyridin-2-one], for which the IC50 came to 0.0387 µM.

In the case of `Cc1cccc(N2CCN(C(=O)Cn3nc(C(=O)N4CCC5NC(=O)OCC5C4)c4c3C[C@H]3C[C@@H]43)CC2)c1C` (stereo partly drawn) [Example 239, 6-[(3bR,4aR)-1-{2-[4-(2,3-dimethylphenyl)piperazin-1-yl]-2-oxoethyl}-3b,4,4a,5-tetahydro-1H-cyclopropa[3,4]cyclopenta[1,2-c]pyrazole-3-carbonyl]octahydro-2H-pyrido[4,3-d][1,3]oxazin-2-one], the IC50 came out at 0.00653 µM.

Regarding `Cc1cccc(N2CCN(C(=O)Cn3nc(C(=O)N4CCC(O)(CF)C4)c4c3CCC4)CC2)c1C` (single isomer, unassigned) [Example 484, (S or R)-1-(4-(2,3-dimethylphenyl)piperazin-1-yl)-2-(3-(3-fluoromethyl)-3-hydroxypyrrolidine-1-carbonyl)-5,6-dihydrocyclopenta[c] pyrazol-1(4H)-yl) ethanone], the IC50 was 0.0426 µM.

On to `Cc1c(Cl)cccc1N1CCN(C(=O)Cn2nc(C(=O)N3CCC(O)(CF)CC3)c3c2CCC(F)(F)C3)CC1` [Example 383, 1-(4-(3-chloro-2-methylphenyl)piperazin-1-yl)-2-(5,5-difluoro-3-(4-(fluoromethyl)-4-hydroxypiperidine-1-carbonyl)-4,5,6,7-tetrahydro-1H-indazol-1-yl)ethan-1-one], for which the IC50 stood at 0.00449 µM.

As for `Cc1cccc(N2CCN(C(=O)Cn3nc(C(=O)N4CCCC(N5CCCC5)C4)c4c3CCC4)CC2)c1C` (stereo not drawn) [Example 187, 1-[4-(2,3-dimethylphenyl)piperazin-1-yl]-2-{3-[3-(pyrrolidin-1-yl)piperidine-1-carbonyl]-5,6-dihydrocyclopenta[c]pyrazol-1(4H)-yl}ethan-1-one], the IC50 turned out to be 0.0761 µM.

As for `Cc1cccc(N2CCN(C(=O)Cn3nc(C(=O)N4CCC(n5nccn5)CC4)c4c3CCC4)CC2)c1C` [Example 138, 1-[4-(2,3-dimethylphenyl)piperazin-1-yl]-2-{3-[4-(2H-1,2,3-triazol-2-yl)piperidine-1-carbonyl]-5,6-dihydrocyclopenta[c]pyrazol-1(4H)-yl}ethan-1-one], the IC50 amounted to 0.00392 µM.

On to `Cc1cccc(N2CCN(C(=O)Cn3nc(C(=O)N4CC[C@@H](O)[C@@H](F)C4)c4c3C[C@H]3C[C@@H]43)C3(CC3)C2)c1C` [Example 365, 1-(7-(2,3-dimethylphenyl)-4,7-diazapspiro[2.5]octan-4-yl)-2-((3bR,4aR)-3-((3S,4R)-3-fluoro-4-hydroxypiperidine-1-carbonyl)-3b,4,4a,5-tetrahydro-1H-cyclopropa[3,4]cyclopenta[1,2-c]pyrazol-1-yl)ethanone], for which the IC50 was found to be 0.00119 µM.

`C[C@@H]1CN(C(=O)c2nn(CC(=O)N3CCN(c4ccccc4C4CC4)CC3)c3c2CCC3)C[C@H](C)O1` [Example 59, 1-[4-(2-cyclopropylphenyl)piperazin-1-yl]-2-{3-[(2R,6S)-2,6-dimethylmorpholine-4-carbonyl]-5,6-dihydrocyclopenta[c]pyrazol-1(4H)-yl}ethan-1-one]: the concentration for half-maximal inhibition (IC50) stood at 0.319 µM.

Consider `Cc1cccc(N2CCN(C(=O)Cn3nc(C(=O)N4CCC(O)CC4)c4c3CCCCC4)CC2)c1C` [Example 409, 1-(4-(2,3-dimethylphenyl)piperazin-1-yl)-2-(3-(4-hydroxypiperidine-1-carbonyl)-5,6,7,8-tetrahydrocyclohepta[c]pyrazol-1(4H)-yl)ethan-1-one], for which the IC50 was found to be 0.00263 µM.

As to `Cc1cccc(N2CCN(C(=O)Cn3nc(C(=O)N4CCN(C(=O)CO)CC4)c4c3C[C@H]3C[C@@H]43)C(C(F)F)C2)c1C` (stereo partly drawn) [Example 389], the half-inhibitory concentration (IC50) was determined as 0.0476 µM.

In the case of `Cc1c(N2CCN(C(=O)Cn3nc(C(=O)N4CCC(O)(CF)CC4)c4c3C[C@H]3C[C@@H]43)CC2)cccc1C(F)(F)F` [Example 336, 2-((3bR,4aR)-3-(4-(fluoromethyl)-4-hydroxypiperidine-1-carbonyl)-3b,4,4a,5-tetrahydro-1H-cyclopropa[3,4]cyclopenta[1,2-c]pyrazol-1-yl)-1-(4-(2-methyl-3-(trifluoromethyl)phenyl)piperazin-1-yl)ethanone], the IC50 worked out at 0.00078 µM.

Consider `Cc1cccc(N2CCN(C(=O)Cn3nc(C(=O)N4CCOC(CO)C4)c4c3CCC4)CC2)c1C` (stereo not drawn) [Example 155, 1-[4-(2,3-dimethylphenyl)piperazin-1-yl]-2-{3-[2-(hydroxymethyl)morpholine-4-carbonyl]-5,6-dihydrocyclopenta[c]pyrazol-1(4H)-yl}ethan-1-one], for which the IC50 stood at 0.0285 µM.

On to `Cc1cccc(N2CCN(C(=O)Cn3nc(C(=O)N4CCC(O)C(CO)C4)c4c3CCCC4)CC2)c1C` (stereo not drawn) [Example 452, 1-(4-(2,3-dimethylphenyl)piperazin-1-yl)-2-(3-(4-hydroxy-3-(hydroxymethyl)piperidine-1-carbonyl)-4,5,6,7-tetrahydro-1H-indazol-1-yl) ethanone], for which the IC50 was 0.00105 µM.

Take `Cc1cccc(N2CCN(C(=O)Cn3nc(C(=O)N4CC[C@H](N)C(F)(F)C4)c4c3CCC4)CC2)c1C` (single isomer, unassigned) [Example 209, [(4S or 4R)-1-[1-[2-[4-(2,3-dimethylphenyl)piperazin-1-yl]-2-oxo-ethyl]-5,6-dihydro-4H-cyclopenta[c]pyrazole-3-carbonyl]-3,3-difluoro-4-piperidyl]ammonium;2,2,2-trifluoroactate]: the IC50 amounted to 0.0367 µM.

On to `O=C(Cn1nc(C(=O)N2CCC(O)CC2)c2c1CCC2)N1CCN(C2CCc3ccccc32)CC1` (single isomer, unassigned) [Example 437, 1-(4-(2,3-dihydro-1H-inden-1-yl)piperazin-1-yl)-2-(3-(4-hydroxypiperidine-1-carbonyl)-5,6-dihydrocyclopenta[c]pyrazol-1(4H)-yl)ethanone], for which the IC50 was 0.81 µM.

As for `Cc1c(Cl)cccc1N1CCN(C(=O)Cn2nc(C(=O)N3CC[C@H](O)[C@H](F)C3)c3c2CCC(F)C3)CC1` (stereo partly drawn) [Example 374, 1-(4-(3-chloro-2-methylphenyl)piperazin-1-yl)-2-(5-fluoro-3-((3R,4S)-3-fluoro-4-hydroxypiperidine-1-carbonyl)-4,5,6,7-tetrahydro-1H-indazol-1-yl)ethan-1-one], the IC50 amounted to 0.00517 µM.

Turning to `Cc1cccc(N2CCN(C(=O)Cn3nc(C(=O)N4CCC(F)(F)[C@H](O)C4)c4c3CCC4)CC2)c1C` (single isomer, unassigned) [Example 210, 2-[3-[(3R or 3S)-4,4-difluoro-3-hydroxy-piperidine-1-carbonyl]-5,6-dihydro-4H-cyclopenta[c]pyrazol-1-yl]-1-[4-(2,3-dimethylphenyl)piperazin-1-yl]ethanone], the IC50 came out at 0.0635 µM.

Regarding `Cc1cccc(N2CCN(C(=O)Cn3nc(C(=O)N4CCN(C(=O)CO)CC4)c4c3C[C@H]3C[C@@H]43)C(C(F)F)C2)c1C` (stereo partly drawn) [Example 388], the IC50 came to 0.0926 µM.
